Assay results reported in article PMC12042115 (mLife, 2025).
Values joined by “and” are separate entries in the source; they are usually repeats but may differ in a detail not shown here. Equal values may be shown once. Read-outs that look alike come from different tables or passages of the source.

Tested on: wild‐type BCG cells
Type: cell-based, M. bovis BCG
Conditions: for Mean Ratio (GDI5755_2d vs DMSO_2d): 2d; for Ratio: single ratios, GDI5755_3d vs DMSO_3d

O=C(Oc1ccc(Cl)cc1)c1ccc(N2CCOCC2)c([N+](=O)[O-])c1 [GDI‐5755]
Mean Ratio (GDI5755_2d vs DMSO_2d) (protein BCG_3079c A0A0H3M8N0 NADPH-dependent FMN reductase-like domain-containing protein，FMN reductase, up-regulated): 1.67
Mean Ratio (GDI5755_2d vs DMSO_2d) (protein BCG_3185c A0A0H3M8B9 Possible dioxygenase, up-regulated): 2.02
Mean Ratio (GDI5755_2d vs DMSO_2d) (protein BCG_3281c A0A0H3MAS0 Probable transmembrane alkane 1-monooxygenase alkB, up-regulated): 1.48
Mean Ratio (GDI5755_2d vs DMSO_2d) (protein BCG_3298 A0A0H3MAT3 DUF1490 family protein, up-regulated): 1.92
Mean Ratio (GDI5755_2d vs DMSO_2d) (protein BCG_3319c A0A0H3MAV3 L-lysine 6-transaminase, up-regulated): 1.48
Mean Ratio (GDI5755_2d vs DMSO_2d) (protein BCG_3476 A0A0H3MB64 Probable dioxygenase, up-regulated): 1.55
Mean Ratio (GDI5755_2d vs DMSO_2d) (protein BCG_3588 A0A0H3M9C1 Probable conserved membrane protein, up-regulated): 1.81
Mean Ratio (GDI5755_2d vs DMSO_2d) (protein BCG_3590 A0A0H3MBE7 Rieske-type oxygenase, up-regulated): 1.45
Mean Ratio (GDI5755_2d vs DMSO_2d) (protein BCG_3591 A0A0H3MID2 Uncharacterized protein,BCG_3591, up-regulated): 1.62
Mean Ratio (GDI5755_2d vs DMSO_2d) (protein BCG_3826c A1KQ98 Putative S-adenosyl-L-methionine-dependent methyltransferase BCG_3826c, up-regulated): 1.54
Mean Ratio (GDI5755_2d vs DMSO_2d) (protein BCG_3917c A0A0H3MJE2 Monooxygenase ethA, up-regulated): 1.44
Mean_Ratio_GDI5755_2d-VS-WT_2d_control (s002 sheet P value, unrounded): 3.462 and 2.763 and 2.713 and 2.648 and 2.17
Mean_Ratio_GDI5755_2d-VS-WT_2d_control (s002 sheet annot_file, c8 (rounded)): 1.08 and 0.90 and 1.06 and 0.93 and 0.81
Mean_Ratio_GDI5755_2d-VS-WT_2d_control (s002 sheet annot_file, c9 (unrounded)): 1.083 and 0.8951 and 1.059 and 0.9258 and 0.8124
Mean_Ratio_GDI5755_3d-VS-WT_3d_control (s003 sheet P value): 3.94 and 2.77 and 2.53 and 2.26 and 2.25
Mean_Ratio_GDI5755_3d-VS-WT_3d_control (s003 sheet annot_file): 1.18 and 1.02 and 1.00
Ratio (protein A0A0G2Q9F3, BCG_0030c (Rv3924c), Large ribosomal subunit protein bL34): 0.8126 and 0.7464 and 0.864 and 0.7929
Ratio (protein A0A0H3M7L0, BCG_2659c (Rv2632c), DUF1876 domain-containing protein): 0.6783 and 0.84 and 0.8345 and 0.8579
Ratio (protein A0A0H3M8R4, BCG_3395 (Rv1267c), Possible transcriptional regulatory protein embR2): 0.7934 and 0.8013 and 0.8041 and 0.8107
Ratio (protein A0A0H3M499, BCG_1243 (Rv1180/Rv1181), Probable polyketide beta-ketoacyl synthase pks3): 0.7824 and 0.8155 and 0.7985 and 0.8135
Ratio (protein A0A0H3M677, BCG_1564 (Rv1500), Probable glycosyltransferase): 0.8075 and 0.8276 and 0.7828 and 0.8014
Ratio (protein A0A0H3MA33, BCG_1381c (Rv1320c), Possible adenylate cyclase): 0.785 and 0.7965 and 0.7852 and 0.8412
Ratio (protein A0A0H3MBI4, BCG_2001A (Rv1962A), Antitoxin VapB35): 0.8087 and 0.8452 and 0.7652 and 0.7971
Ratio (protein A0A0H3MBL1, BCG_3682c (Rv3624c), Hypoxanthine phosphoribosyltransferase): 0.7684 and 0.8491 and 0.778 and 0.8193
Ratio (protein A0A0H3MDB0, BCG_2775c (Rv2759c), Ribonuclease VapC): 0.8535 and 0.7284 and 0.8794 and 0.7453
Ratio (protein A1KPC8, BCG_3507c (Rv3441c), Phosphoglucosamine mutase): 0.7677 and 0.7655 and 0.8493 and 0.8355
proteome downregulated (third day, 2×MIC): 49.6%
Mean_Ratio (GDI5755_3d vs DMSO_3d), protein BCG_0130 (up-regulated, A0A0H3M0N8, Mtb Rv0097, Possible oxidoreductase): 1.5
Mean_Ratio (GDI5755_3d vs DMSO_3d), protein BCG_0176 (up-regulated, A0A0H3M1F5, Mtb MRA_0147, DUF427 domain-containing protein): 1.5
Mean_Ratio (GDI5755_3d vs DMSO_3d), protein BCG_0623c (up-regulated, A0A0H3M1W6, Mtb Rv0578c, PE-PGRS family protein): 1.8
Mean_Ratio (GDI5755_3d vs DMSO_3d), protein BCG_0353 (up-regulated, A0A0H3M1Y1, Mtb Rv0313, Transmembrane protein): 1.6
Mean_Ratio (GDI5755_3d vs DMSO_3d), protein BCG_0227 (up-regulated, A0A0H3M2R5, Mtb Rv0190, Copper-sensing transcriptional repressor RicR): 1.4
Mean_Ratio (GDI5755_3d vs DMSO_3d), protein BCG_0726c (up-regulated, A0A0H3M2T8, Mtb Rv0677c, Possible conserved membrane protein mmpS5): 1.4
Mean_Ratio (GDI5755_3d vs DMSO_3d), protein BCG_1249 (up-regulated, A0A0H3M3D0, Mtb Rv1187, L-glutamate gamma-semialdehyde dehydrogenase): 1.6
Mean_Ratio (GDI5755_3d vs DMSO_3d), protein BCG_1334 (up-regulated, A0A0H3M3I9, Mtb Rv1275, Lipoprotein lprC): 1.3
Mean_Ratio (GDI5755_3d vs DMSO_3d), protein A0A0H3M3L0Rv1303 (up-regulated, A0A0H3M3L0, Conserved hypothetical transmembrane protein): 1.4
Mean_Ratio (GDI5755_3d vs DMSO_3d), protein BCG_0507 (up-regulated, A0A0H3M3L9, Mtb Rv0467, isocitrate lyase): 1.5
Mean_Ratio (GDI5755_3d vs DMSO_3d), protein BCG_1404c (up-regulated, A0A0H3M3N1, Mtb Rv1342c, Conserved membrane protein): 1.5
Mean_Ratio (GDI5755_3d vs DMSO_3d), protein BCG_1053 (up-regulated, A0A0H3M3P8, Mtb MRA_1004, Uncharacterized protein): 1.5
Mean_Ratio (GDI5755_3d vs DMSO_3d), protein BCG_1472c (up-regulated, A0A0H3M3S8, Mtb Rv1411c, Lipoarabinomannan carrier protein LprG): 1.4
Mean_Ratio (GDI5755_3d vs DMSO_3d), protein BCG_0578c (up-regulated, A0A0H3M3U8, Mtb Rv0534c, 1,4-dihydroxy-2-naphthoate octaprenyltransferase, menA): 1.9
Mean_Ratio (GDI5755_3d vs DMSO_3d), protein BCG_1661c (up-regulated, A0A0H3M4E4, Mtb Rv1623c, integral membrane cytochrome D ubiquinol oxidase (Subunit I) cydA): 1.6
Mean_Ratio (GDI5755_3d vs DMSO_3d), protein BCG_1022 (up-regulated, A0A0H3M4W6, Mtb Rv0968, DUF1490 family protein): 1.5
Mean_Ratio (GDI5755_3d vs DMSO_3d), protein BCG_1787 (up-regulated, A0A0H3M5K5, Mtb Rv1748, DUF4129 domain-containing protein): 1.4
Mean_Ratio (GDI5755_3d vs DMSO_3d), protein BCG_1584c (up-regulated, A0A0H3M6A1, Mtb Rv1532c, Thioesterase domain-containing protein): 1.3
Mean_Ratio (GDI5755_3d vs DMSO_3d), protein BCG_1795c (up-regulated, A0A0H3M6T8, Mtb MRA_1768B, Uncharacterized protein): 1.4
Mean_Ratio (GDI5755_3d vs DMSO_3d), protein BCG_1998c (up-regulated, A0A0H3M7D9, Mtb Rv1959c, Toxin ParE1): 1.4
Mean_Ratio (GDI5755_3d vs DMSO_3d), protein BCG_2583 (up-regulated, A0A0H3M7F6, Mtb Rv2560, proline and glycine rich transmembrane protein): 1.7
Mean_Ratio (GDI5755_3d vs DMSO_3d), protein BCG_0282c (up-regulated, A0A0H3M7K8, Mtb Rv0244c, acyl-CoA dehydrogenase fadE5): 1.6
Mean_Ratio (GDI5755_3d vs DMSO_3d), protein BCG_0287c (up-regulated, A0A0H3M7L3, Mtb Rv0249c, Succinate dehydrogenase [membrane anchor subunit]): 1.4
Mean_Ratio (GDI5755_3d vs DMSO_3d), protein BCG_2072c (up-regulated, A0A0H3M7M3, Mtb Rv2053c, transmembrane protein): 1.6
Mean_Ratio (GDI5755_3d vs DMSO_3d), protein BCG_2723 (up-regulated, A0A0H3M7S6, Mtb Rv2710, RNA polymerase sigma factor, sigB): 1.3
Mean_Ratio (GDI5755_3d vs DMSO_3d), protein BCG_0422c (up-regulated, A0A0H3M7W9, Mtb Rv0384c, Chaperone protein ClpB): 1.5
Mean_Ratio (GDI5755_3d vs DMSO_3d), protein BCG_3185c (up-regulated, A0A0H3M8B9, Mtb Rv3161c, Dioxygenase): 2.2
Mean_Ratio (GDI5755_3d vs DMSO_3d), protein BCG_3195c (up-regulated, A0A0H3M8D0, Mtb Rv3171c, Possible non-heme haloperoxidase hpx): 1.4
Mean_Ratio (GDI5755_3d vs DMSO_3d), protein BCG_0728c (up-regulated, A0A0H3M8M0, Mtb Rv0679c, Conserved hypothetical threonine rich protein): 1.4
Mean_Ratio (GDI5755_3d vs DMSO_3d), protein BCG_3079c (up-regulated, A0A0H3M8N0, Mtb Rv3054c, NADPH-dependent FMN reductase-like domain-containing protein): 2.0
Mean_Ratio (GDI5755_3d vs DMSO_3d), protein BCG_3084 (up-regulated, A0A0H3M8N5, Mtb Rv3059, Probable cytochrome P450 136 cyp136): 1.3
Mean_Ratio (GDI5755_3d vs DMSO_3d), protein BCG_3153c (up-regulated, A0A0H3M8U1, Mtb Rv3130c, Diacylglycerol O-acyltransferase): 1.4
Mean_Ratio (GDI5755_3d vs DMSO_3d), protein BCG_2517c (up-regulated, A0A0H3M8U9, Mtb Rv2497c, Probable pyruvate dehydrogenase E1 component (Alpha subunit) pdhA): 1.4
Mean_Ratio (GDI5755_3d vs DMSO_3d), protein BCG_3184c (up-regulated, A0A0H3M8V5, Mtb Rv3160c, Possible transcriptional regulatory protein (Probably tetR-family)): 1.4
Mean_Ratio (GDI5755_3d vs DMSO_3d), protein BCG_3588 (up-regulated, A0A0H3M9C1, Mtb Rv3524, Serine/threonine-protein kinase PknD(NU-6027 target)): 1.8
Mean_Ratio (GDI5755_3d vs DMSO_3d), protein BCG_2721c (up-regulated, A0A0H3M9C3, Mtb Rv2708c, DUF3039 domain-containing protein): 1.4
Mean_Ratio (GDI5755_3d vs DMSO_3d), protein BCG_1115 (up-regulated, A0A0H3M9F1, Mtb Rv1057, YVTN family beta-propeller repeat protein): 1.5
Mean_Ratio (GDI5755_3d vs DMSO_3d), protein BCG_1130 (up-regulated, A0A0H3M9G5, conserved transmembrane protein): 1.5
Mean_Ratio (GDI5755_3d vs DMSO_3d), protein BCG_2810c (up-regulated, A0A0H3M9L8, Mtb Rv2792c, Possible resolvase): 1.5
